Laboratory results reported in US10670605B2, “Cysteine reactive probes and uses thereof” (The Scripps Research Institute, priority 2015, dated 2020).

How the values were obtained:
[1] = target: T1, ACAT1 C196 (P24752) (Homo sapiens, UniProt P24752); assay: Competitive isoTOP-ABPP, cell lysates; type: binding; conditions: 500 μm, in-vitro_ramos_231
T1 sequence (P24752 34-427): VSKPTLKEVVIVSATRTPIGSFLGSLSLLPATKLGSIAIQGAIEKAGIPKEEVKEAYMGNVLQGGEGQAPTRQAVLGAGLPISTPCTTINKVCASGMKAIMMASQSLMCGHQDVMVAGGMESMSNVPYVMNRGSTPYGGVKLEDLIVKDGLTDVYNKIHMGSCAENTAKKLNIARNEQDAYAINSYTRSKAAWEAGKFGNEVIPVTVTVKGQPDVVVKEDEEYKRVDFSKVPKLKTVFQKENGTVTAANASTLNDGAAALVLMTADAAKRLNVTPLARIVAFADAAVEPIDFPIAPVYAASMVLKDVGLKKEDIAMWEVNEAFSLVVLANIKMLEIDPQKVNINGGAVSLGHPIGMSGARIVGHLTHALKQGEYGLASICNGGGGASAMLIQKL

[2] = target: T2, ACAT1 C413 (P24752) (Homo sapiens, UniProt P24752); assay: Competitive isoTOP-ABPP, cell lysates; type: binding; conditions: 500 μm, in-vitro_ramos_231
T2 sequence (P24752 34-427): T1 sequence (P24752 34-427)

[3] = target: T3, ACAT1 C119 (P24752) (Homo sapiens, UniProt P24752); assay: Competitive isoTOP-ABPP, cell lysates; type: binding; conditions: 500 μm, in-vitro_ramos_231
T3 sequence (P24752 34-427): T1 sequence (P24752 34-427)

[4] = target: PRMT1 C109 (Q99873) (Homo sapiens, UniProt Q99873); assay: Competitive isoTOP-ABPP, cell lysates; type: binding; conditions: 500 μm, in-vitro_ramos_231;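 also: Heavy/light ratio DMSO over fragment-treated so higher means more cysteine engagement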
Experimental: (§1) TEV digests were pressure loaded onto a 250 μm (inner diameter) fused silica capillary column packed with C18 resin (Aqua 5 μm, Phenomenex). The samples were analyzed by multidimensional liquid chromatography tandem mass spectrometry (MudPIT), using an LTQ-Velos Orbitrap mass spectrometer (Thermo Scientific) coupled to an Agilent 1200-series quaternary pump. The peptides were eluted onto a biphasic column with a 5 μm tip (100 μm fused silica, packed with C18 (10 cm) and bulk strong cation exchange resin (3 cm, SCX, Phenomenex,)) in a 5-step MudPIT experiment, using 0%, 30%, 60%, 90%, and 100% salt bumps of 500 mM aqueous ammonium acetate and using a gradient of 5-100% buffer B in buffer A (buffer A: 95% water, 5% acetonitrile, 0.1% formic acid; buffer B: 5% water, 95% acetonitrile, 0.1% formic acid) as has been described in Weerapana et al. Nat Protoc 2:1414-1425 (2007). Data was collected in data-dependent acquisition mode with dynamic exclusion enabled (20 s, repeat of 2). One full MS (MS1) scan (400-1800 m/z) was followed by 30 MS2 scans (ITMS) of the nth most abundant ions.
(§2) The ratios of heavy/light for each unique peptide (DMSO/compound treated; isoTOP-ABPP ratios, R values) were quantified with in-house CIMAGE software, using default parameters (3 ms s per peak and signal to noise threshold 2.5). Site-specific engagement of electrophilic fragments was assessed by blockade of IA-alkyne probe labeling. […] Ratios for unique peptide entries were calculated for each experiment; overlapping peptides with the same modified cysteine (e.g. different charge states, MudPIT chromatographic steps or tryptic termini) were grouped together and the median ratio was reported as the final ratio (R). The peptide ratios reported by CIMAGE were further filtered to ensure the removal or correction of low quality ratios in each individual dataset. The quality filters applied were the following: removal of half tryptic peptides; for ratios with high standard deviations from the median (90% of the median or above) the lowest ratio was taken instead of the median; removal of peptides with R=20 and only a single ms2 event triggered during the elution of the parent ion; manual annotation of all the peptides with ratios of 20, removing any peptides with low-quality elution profiles that remained after the previous curation steps. Proteome reactivity values for individual fragments were computed as the percentage of the total quantified cysteine-containing peptides with R values≥4 (defined as liganded cysteines) for each replicate experiment and the final proteome reactivity value was calculated as the mean for all replicate experiments for each fragment from both MDA-MB-231 and Ramos cellular proteomes.
(§3) Biological replicates of the same compound and cell-line were averaged if the standard deviation was below 60% of the mean; otherwise the lowest value of the ratio set was taken.

[5] = target: XPO1 C34 (O14980) (Homo sapiens, UniProt O14980); assay: Competitive isoTOP-ABPP, cell lysates; type: binding; conditions: 500 μm, in-vitro_ramos_231
Experimental: as §1, §2, §3

[6] = target: GNB2L1 C182 (P63244) (Homo sapiens, UniProt P63244); assay: Competitive isoTOP-ABPP, cell lysates; type: binding; conditions: 500 μm, in-vitro_ramos_231;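 also: Heavy/light ratio DMSO over fragment-treated so higher means more cysteine engagement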
Experimental: as §1, §2, §3

[7] = target: GSTP1 C48 (P09211) (Homo sapiens, UniProt P09211); assay: Competitive isoTOP-ABPP, cell lysates; type: binding; conditions: 500 μm, in-vitro_ramos_231;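 also: Heavy/light ratio DMSO over fragment-treated so higher means more cysteine engagement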
Experimental: as §1, §2, §3

[8] = target: T4, PDIA6 C55 (Q15084) (Homo sapiens, UniProt Q15084); assay: Competitive isoTOP-ABPP, cell lysates; type: binding; conditions: 500 μm, in-vitro_ramos_231
T4 sequence (Q15084 20-440): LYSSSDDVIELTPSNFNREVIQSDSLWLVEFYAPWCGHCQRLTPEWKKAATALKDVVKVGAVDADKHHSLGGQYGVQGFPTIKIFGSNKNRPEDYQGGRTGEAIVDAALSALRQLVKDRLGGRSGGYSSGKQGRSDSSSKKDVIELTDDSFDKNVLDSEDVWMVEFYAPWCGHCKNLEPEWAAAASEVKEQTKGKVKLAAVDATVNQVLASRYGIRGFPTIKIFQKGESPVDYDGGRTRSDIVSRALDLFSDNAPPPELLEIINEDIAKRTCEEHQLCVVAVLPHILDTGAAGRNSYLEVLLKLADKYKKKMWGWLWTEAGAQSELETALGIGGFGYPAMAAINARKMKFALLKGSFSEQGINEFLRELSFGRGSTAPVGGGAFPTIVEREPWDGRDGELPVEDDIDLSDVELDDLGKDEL
Experimental: as §1, §2, §3

[9] = target: MLTK C22 (Q9NYL2) (Homo sapiens, UniProt Q9NYL2); assay: Competitive isoTOP-ABPP, cell lysates; type: binding; conditions: 500 μm, in-vitro_ramos_231
Experimental: as §1, §2, §3

[10] = target: UBE2L3 C86 (P68036) (Homo sapiens, UniProt P68036); assay: Competitive isoTOP-ABPP, cell lysates; type: binding; conditions: 500 μm, in-vitro_ramos_231;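 also: Heavy/light ratio DMSO over fragment-treated so higher means more cysteine engagement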
Experimental: as §1, §2, §3

[11] = target: O00541_C272 (Homo sapiens, UniProt O00541); assay: Competitive isoTOP-ABPP, cell lysates; type: binding; conditions: 500 μm, in-vitro_ramos_231
[12] = target: T5, ACAT1 C126 (P24752) (Homo sapiens, UniProt P24752); assay: Competitive isoTOP-ABPP, cell lysates; type: binding; conditions: 500 μm, in-vitro_ramos_231
T5 sequence (P24752 34-427): T1 sequence (P24752 34-427)

[13] = target: T6, MLTK (Homo sapiens, UniProt Q9NYL2); assay: MLTK in vitro kinase activity assay; type: biochemical; conditions: WT-MLTK, 100 μM fragment
T6 construct: expressed in transfected cells
Experimental: (§4) The kinase activity assay protocol was conducted as described in Wang et al. ACS Chemical biology 9:2194-2198 (2014). Kinase assay buffers, myelin basic protein (MBP) substrate and ATP stock solution were purchased from SignalChem. Radio-labeled [γ-^33P] ATP was purchased from PerkinElmer. 250 μL of HEK-293T soluble lysates (8 mg/mL), stably overexpressing WT, C22A or K45M MLTK were labeled for 1 h with 100 μM fragment or DMSO. The samples were then individually immunoprecipitated with 20 μL flag resin slurry per sample and then eluted with 15 μL 3×Flag-peptide. To each sample was added 5 μL of MBP and then 5 μL of [γ-^33P] ATP assay cocktail (250 μM, 167 μCi/mL) was added to initiate the kinase reaction. Each reaction mixture was incubated at ambient temperature for 30 min, and the reactions were terminated by spotting 25 μL of the reaction mixture onto individual precut phosphocellulose P81 paper. The spotted P81 strips were washed with 10 mL of 1% phosphoric acid (3×10 min). MLTK activity was measured by counting the radioactivity on the P81 paper in the presence of scintillation fluid in a scintillation counter. […] Relative activities for WT and C22A were normalized to their respective DMSO treated samples. Experiments were performed in triplicate.

[14] = target: T7, MLTK (Homo sapiens, UniProt Q9NYL2, C22A); assay: MLTK in vitro kinase activity assay; type: biochemical; conditions: C22A-MLTK, 100 μM fragment
T7 construct: expressed in transfected cells
Experimental: as §4

[15] = target: T8, MLTK (ZAK) C22 (Homo sapiens, UniProt Q9NYL2); assay: Blockade of ibrutinib-derived probe 59 labeling of MLTK (gel-based ABPP); type: binding; conditions: read-out: IC50 for blockade of ibrutinib probe 59 labeling of MLTK; recombinant MLTK in HEK293T lysate
T8 construct: expressed in transfected cells
Experimental: CuAAC was performed with 20 μM rhodamine-azide (50× stock in DMSO), 1 mM tris(2-carboxyethyl)phosphine hydrochloride (TCEP; fresh 50× stock in water, final concentration=1 mM), ligand (17× stock in DMSO:t-butanol 1:4, final concentration=100 μM) and 1 mM CuSO4 (50× stock in water, final concentration=1 mM). […] Quenched reactions were analyzed by SDS-PAGE and visualized by in-gel fluorescence. […] For MLTK, HEK 293T cells stably overexpressing MTLK^2 were treated with the indicated fragment electrophiles for 1 h, followed by labeling with 59 (1 μl, of 125 μM, final concentration=5 μM) for 1 h. These were followed by CuAAC conjugation to rhodamine-azide and evaluation by SDS-PAGE as described above.

[16] = system: intracellular GSH in primary human T cells; assay: Quantification of cellular glutathione (GSH) levels; type: cell-based; conditions: DMF 50 μM 2 h; BSO 2.5 mM 4 h
Experimental: Primary human T cells (2.5 million cells/mL, 20 mL per condition) were treated as indicated, harvested by centrifugation (500 g, 8 min, 4° C.), and washed twice with PBS. To the cell pellet was added 75 μL of lysis buffer. […] Protein concentrations were adjusted to at least 5 mg/mL and the assay performed according to manufacturer's instructions (Sigma-Aldrich, CS 1020). Data represent mean±SE for two biological replicates.

[17] = system: primary human T cells; assay: T cell activation markers CD25 and CD69 (flow cytometry); type: cell-based; conditions: 2.5 mM, 8 h
Experimental: 96-well plates were coated with anti-CD3 (1:200; BioXcell) and anti-CD28 (1:500; 302933; BioLegend) in PBS (100 μL/well) overnight at 4° C. The plates were then washed twice with PBS and to each well was added 500,000 primary T cells in 100 μL of RPMI supplemented with 10% FBS, glutamine, and Pen-Strep. Cells were then treated with 100 μL of media containing compound at the indicated concentrations (final well volume of 200 μL). Cells were left at 37° C. in a 5% CO2 incubator for the indicated periods of time and harvested by centrifugation (500 g, 8 min, 4° C.), followed by washing with PBS.
Flow cytometry analysis of cell surface antigens was performed with the following antibodies: Pacific Blue-conjugated anti-CD8 (1:25 dilution; clone RPA-T8; BD Biosciences), APC-conjugated anti-CD4 (1:25 dilution; clone RPA-T4; eBioscience), phycoerythrin-conjugated anti-CD25 (1:25 dilution; clone BC96; eBioscience or PC61; BioLegend (PKCθ studies)), FITC-conjugated anti-CD69 (1:25 dilution; clone FN50; eBioscience). All antibodies were diluted in 1% FBS in PBS, and 50 μL of the stain solution was added to each well. […] Flow cytometry acquisition was performed with BD FACSDivam-driven BD™ LSR II flow cytometer (Becton, Dickinson and Company). Data was then analyzed with FlowJo software (Treestar Inc.). Data represent mean±SE for four-five experiments per group.

[18] = system: Cys residues in primary human T cells; assay: isoTOP-ABPP of compound-treated primary human T cells; type: cell-based; conditions: MMF 50 μM 4 h; BSO 2.5 mM 4 h
[19] = system: IMPDH2 (C140); assay: Click probe 18 labeling of recombinant IMPDH2 and its competition; type: binding, human; conditions: probe 25 μM
[20] = system: protein targets in MDA-MB-231 cells; assay: Whole protein capture with click probes (SILAC proteomics), native vs heat denatured; type: binding, human; conditions: proteins liganded by parent fragment (3 / 14) and enriched by click probe (19 / 18)
Experimental: Protein enrichment by 18 and 19 was measured by whole protein capture of isotopically-SILAC labeled MDA-MB-231 cells using quantitative (SILAC) proteomics.

## CCCN(C(=O)CCl)c1c(N)n(CCC)c(=O)[nH]c1=O [compound 55]
[1]
  isoTOP-ABPP reactivity profile ratio, P24752_C196: 1.0
[2]
  isoTOP-ABPP reactivity profile ratio, P24752_C413: 1.0
[3]
  isoTOP-ABPP reactivity profile ratio, P24752_C119: 0.9
[4]
  isoTOP-ABPP reactivity profile ratio, Q99873_C109: 1.0
[5]
  isoTOP-ABPP reactivity profile ratio, O14980_C34: 0.9
[6]
  isoTOP-ABPP reactivity profile ratio, P63244_C182: 1.0
[7]
  isoTOP-ABPP reactivity profile ratio, P09211_C48: 1.4
[8]
  isoTOP-ABPP reactivity profile ratio, Q15084_C55: 0.9
[9]
  isoTOP-ABPP reactivity profile ratio, Q9NYL2_C22: 1.2
[10]
  isoTOP-ABPP reactivity profile ratio, P68036_C86: 1.0
[11]
  isoTOP-ABPP reactivity profile ratio, O00541_C272: 1.0
[12]
  isoTOP-ABPP reactivity profile ratio, P24752_C126: 0.9

## O=C(CCl)N1N=C(c2ccco2)CC1c1cc2ccccc2o1 (centres unmarked) [compound 60]
[13]
  catalytic activity of MLTK (substrate phosphorylation): blocked the catalytic activity
[14]
  inhibitory effect on C22A-MLTK mutant: not observed
[15]
  IC50: 2.6 µM

## CCCCS(=N)(=O)CCC(N)C(=O)O (centres unmarked) [BSO, buthionine sulfoximine]
[16]
  cellular GSH content: Significant reductions
[17]
  T cell activation (CD25): no effect
[18]
  alteration of the ~40 DMF-sensitive Cys residues: none

## C#CCCCCNC(=O)c1cc(NC(=O)C=C)cc(C(F)(F)F)c1 [compound 18]
[19]
  direct labeling of IMPDH2 WT and mutants by click probe: labeled WT-IMPDH2 and a C331S-IMPDH2 mutant, but not the C140S or C140S/C331S mutants
[20]
  percentage of quantified protein targets sensitive to heat denaturation: 73%
